{
  "source": "paper PMC8006777",
  "about": "(Journal of the American Chemical Society, 2020)",
  "target": "MPP1 (Manganese Porphyrin-binding Protein 1)",
  "assay": "UV-vis absorption titration",
  "parameters": "species or system synthetic construct",
  "data": [
    {"smiles": "C1=CC2=[N+]3C1=Cc1ccc4[n]1[Mn-]31[n]3c(ccc3=C2c2ccccc2)=CC2=[N+]1C(=C4c1ccccc1)C=C2", "note": "(stereo not shown) [Mn(III)DPP]", "values": [
      {"measurement": "Kd", "result": "122 ± 19", "unit": "nM"}
    ]}
  ]
}
